Assay results: patent publication US20250179108A1, “UTILITY OF NEMATODE SMALL MOLECULES” (California Institute of Technology, priority 2011, published 2025)
“Also recorded” adds a separate entry of the source.

Tests used:
[1] = tested on: C. elegans; conditions: cited from earlier work
[2] = tested on: asthmatic mice; assay: Ovalbumin induction of asthma, allergic airway inflammation in mice; format: in vivo; conditions: for eosinophils / mucus hyper-production / cellular infiltration into the lungs: asthmatic mice; for cellular infiltration into the lungs: lung histology
Experimental: FIG. 7A depicts, in accordance with an embodiment herein, sensitization with OVA+ Control/Alum (N=3) and sensitization with OVA+NES/Alum (N=3), in Nippostrongylus brasiliensis. The experimental model is ovalbumin inducation of asthma. […] No worm, living or dead, is introduced into the asthma model. Furthermore, proteins were eliminated by denaturing at 100C for 25 minutes, and filtering through a 10 kDa filter. FIGS. 7B-7D depict the histology of mice treated with NES.
The effects of ascarosides are examined for an allergic airway inflammation.

[3] = tested on: males from many of the nematode species tested; assay: Attraction assay, males of different nematode species; format: in vivo; conditions: 1 nM, 1 μM and 1 mM tested
Experimental: FIG. 5A depicts, in accordance with an embodiment herein, that ascarosides mediate behavior of nematode species from diverse generas. Species that were amenable to test in the attraction assay (sufficient movement, unbiased direction, reproducible controls) were scored for attraction or repulsion toward three concentrations (1 mM, 1 μM, and 1 nM: from left to right) of 13 different ascarosides. Pvalues were determined using the Student's t-test with a P<0.05. The score “0” represents any findings where P>0.05.
(§1) To investigate the biological function of the ascarosides identified in the MS screen, the inventors used a bioassay (FIGS. 1A-1C) to measure attraction of different nematode species to a wide range of ascaroside concentrations (1 nM, 1 μM, and 1 mM). For these bioassays, nematode species had to fulfill several requirements, such as sufficient movement on bacterial lawns, low tendency to aggregate, easy to grow, and generally reproducible locomotive behavior. This study was limited to a survey of males from different species, because males tended to move much more evenly across our bioassay lawn than females and hermaphrodites (with the exception of P. redivivus females, which move well and were therefore in this study.)
(§2) OP50 E. coli is grown on a standard 5 cm agar plate (made with standard Nematode Growth Medium). The bacterial lawn is 16 mm in diameter and is grown overnight at 20C before being used in trials. Two 4-mm spots ([…]) were placed on opposite sides of the bacterial lawn (using a transparent template to guide spot placement) and several minutes elapsed for the liquid to settle in before placing nematodes down on the assay. Recording began immediately upon worm placement. […] of the control was placed on one side of the lawn and […] of the experimental cue was placed on the other side of the lawn, changing the location of the cue throughout trials, between left/right and top/bottom to avoid bias. Nematodes were isolated by gender at the L4 stage the day before being used in trials as developed adults. Five worms were each placed at two points equidistant from the foci of the scoring region (ten total). Trials were recorded for 20 minutes and frames were collected for analysis at 1 frame per second. Results were averaged from at least three different trials. For every nematode species in this study, the inventors tested different total number of worms (using water in both scoring regions) to determine the minimum number of worms necessary for consistent unbiased results over a 20-minute trial. The total number of worms used in the multiple species assays depending on that species' optimal parameters. 10 worms were for P. redivivus males and females, 20 worms were used for C. elegans males, O. dolichuridae males, and C. sp7 males and 14 worms were used forS. glaseri males.
A video camera attached to the microscope produces a digital video stream, which is then analyzed. The ratio of time the average worm spends in each region of interest is calculated for every trial. For ease of implementation, it was assumed that all worms in a single experiment are roughly the same size. Thus, worm pixels were counted instead of whole worms, allowing the inventors to take into account fractions of a worm in the region of interest. It also eliminated the need for a shape-based worm identification algorithm, and allowed each frame to be analyzed independently. The inventors applied a band-pass filter to each frame to eliminate the effect of uneven lighting and also accentuate the worms against the background. The worm was then identified after thresholding the filtered image. Throughout each experiment, the inventors know the locations and sizes of the regions of interest. Through the filtering described above, the inventors know which pixels are occupied by worms and which ones are not. They are then able to calculate the ratio of worm-pixels to all pixels inside the region of interest to produce the worm- occupancy ratio. […]

[4] = tested on: P. redivivus females; assay: Repulsion scoring by behavioral response (immediate exit of the conditioned region); format: in vivo, Panagrellus redivivus; conditions: high concentrations
Source text: The inventors thus used a separate method for scoring repulsion that focused on behavioral response rather than time spent in each region.

[5] = tested on: P. redivivus females; assay: Attraction assay, Panagrellus redivivus females; format: in vivo
Experimental: (§3) FIG. 1A depicts, in accordance with an embodiment herein, a chemoattraction assay to reveal a gender specific mate finding cue in Panagrellus redivivus. A transparent template is attached below a 5-cm plate with a 16-mm bacterial lawn to delineate two scoring regions into which 0.6μL of the experimental sample and control sample are placed. Ten P. redivivus males are placed at points equidistant from the two scoring regions and the plate is recorded for 20 minutes (at a rate of 1 frame per second).
(§4) FIG. 1B depict attraction measured using software that computes the ratio of worm-pixels to total pixels for each scoring region.
(§5) FIG. 1C that the output is a plot of worm occupancy ratio vs. time for both scoring regions. The shown graph indicates strong attraction of P. redivivus males to the experimental sample. FIG. 2A depicts, in accordance with an embodiment herein, purification of the female sex pheromone in Panagrellus redivivus.
as §2, with “The total number of worms used in the multiple species assays depending on that species' optimal parameters. 10 worms were for P. redivivus males and females, 20 worms were used for C. elegans males, O. dolichuridae males, and C. sp7 males and 14 worms were used forS. glaseri males.” left out
(§6) A video camera attached to the microscope produces a digital video stream, which is then analyzed. The ratio of time the average worm spends in each region of interest is calculated for every trial. […] Thus, worm pixels were counted instead of whole worms, allowing the inventors to take into account fractions of a worm in the region of interest. It also eliminated the need for a shape-based worm identification algorithm, and allowed each frame to be analyzed independently. […]

[6] = tested on: P. redivivus males; assay: Attraction assay, Panagrellus redivivus males; format: in vivo
Experimental: as §3, §4, §5
OP50 E. coli is grown on a standard 5 cm agar plate (made with standard Nematode Growth Medium). The bacterial lawn is 16 mm in diameter and is grown overnight at 20C before being used in trials. Two 4-mm spots ([…]) were placed on opposite sides of the bacterial lawn (using a transparent template to guide spot placement) and several minutes elapsed for the liquid to settle in before placing nematodes down on the assay. Recording began immediately upon worm placement. […] Trials were recorded for 20 minutes and frames were collected for analysis at 1 frame per second. […]
as §6

[7] = tested on: C. elegans males; conditions: reduced attraction at high concentrations; cited from earlier work
[8] = tested on: C. elegans males; assay: Attraction assay, C. elegans males; format: in vivo, Caenorhabditis elegans; conditions: tested at 1 nM, 1 μM and 1 mM
Experimental: as §1
OP50 E. coli is grown on a standard 5 cm agar plate (made with standard Nematode Growth Medium). […] Trials were recorded for 20 minutes and frames were collected for analysis at 1 frame per second. […]
as §6

[9] = any of the tested concentrations

Structure (SMILES)	eosinophils [2]	mucus hyper-production [2]	cellular infiltration into the lungs [2]	attraction of males [3]	also measured
CC1O[C@@H](O[C@H](C)CCCCC(=O)O)C(O)C[C@H]1O (single isomer, unassigned; (-)) [ascr #1, (−) 6-(3,5-dihydroxy-6-methyltetrahydropyran-2-yloxy) heptanoic acid]	reduction	decreased	decreased	attracted	induction of diapause (dauer) [1]: weakly induces diapause; eosinophils ([2]; listed as Ascr #1): some effect; female repulsion, immediate exit of the conditioned region before entering a full worm's length [4]: significantly repelled; female attraction [5, 9]: not attracted; female attraction ([5]; between 100 and 106 fmol, FIG. 2E): not attracted; female repulsion, semi-automated scoring method ([5]; time spent in each region): not significantly repelled; male attraction (Attraction Bioassay) ([6]; P. redivivus males): strongly attracted; also recorded: full male attraction
CC(=O)CCCC(C)OC1OC(C)C(O)CC1O (centres unmarked) [ascr #2]					male response to hermaphroditic sex pheromones [7]: biphasic response
CC1O[C@@H](O[C@H](C)CCCC/C=C/C(=O)O)[C@@H](O)C[C@H]1O (some centres unmarked) [ascr #3]	reduction; also recorded: some effect	decreased	decreased	attracted	male response to hermaphroditic sex pheromones [7]: biphasic response
C[C@H](CC/C=C/C(=O)O)O[C@@H]1O[C@@H](C)[C@H](O)C[C@H]1O [ascr #7]	reduction; also recorded: markedly reduced	decreased	decreased	attracted	effect on allergic airway inflammation ([2]; synthesized ascarosides tested individually, FIG. 10B): inhibitory effect; male response (attraction) [8]: only respond to 1 mM; male attraction ([6]; 1 mM and 1 μM): attracted
C[C@H](CC/C=C/C(=O)Nc1ccc(C(=O)O)cc1)O[C@@H]1O[C@@H](C)[C@H](O)C[C@H]1O [ascr #8]				attracted	
CC1O[C@@H](O[C@H](C)CCC(=O)O)[C@@H](O)C[C@H]1O (some centres unmarked) [ascr #9]				attracted	
CC1O[C@@H](O[C@H](C)CCCCCCC(=O)O)[C@@H](O)C[C@H]1O (some centres unmarked) [ascr #10]				attracted	female attraction [5, 9]: do not respond; male attraction ([6]; very high, nonphysiological concentration of 1 mM): some attraction
